Reference: patent US8222248B2, “Organic compounds” (Novartis AG, priority 2006, dated 2012)

Target: T1, human DGAT1 (Homo sapiens, UniProt O75907)
T1 construct: made in house; host or cells: Sf9 cells (membrane preparation)
T1 sequence (O75907 1-488): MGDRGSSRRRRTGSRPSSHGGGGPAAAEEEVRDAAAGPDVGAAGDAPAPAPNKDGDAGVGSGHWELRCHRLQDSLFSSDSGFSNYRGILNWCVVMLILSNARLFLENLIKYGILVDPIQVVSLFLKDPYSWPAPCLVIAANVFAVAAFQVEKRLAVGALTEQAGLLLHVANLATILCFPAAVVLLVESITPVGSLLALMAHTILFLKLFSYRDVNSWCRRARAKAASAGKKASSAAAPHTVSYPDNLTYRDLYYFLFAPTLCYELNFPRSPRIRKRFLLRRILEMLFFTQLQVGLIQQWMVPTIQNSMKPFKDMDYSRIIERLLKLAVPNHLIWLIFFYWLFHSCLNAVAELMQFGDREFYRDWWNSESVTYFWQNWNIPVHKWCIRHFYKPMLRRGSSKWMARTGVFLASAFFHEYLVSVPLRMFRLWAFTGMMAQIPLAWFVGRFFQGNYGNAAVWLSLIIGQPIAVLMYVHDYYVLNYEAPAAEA
Test: DGAT1 enzyme inhibition assay (membrane preparation, LC/MS/MS readout)
Format: biochemical
Conditions: DGAT1 inhibitory activity, table at end of examples
Method: The enzyme preparation used in this assay is a membrane preparation from Sf9 cells overexpressing human (His)6DGAT1. During all steps samples were chilled to 4° C. Sf9 cells expressing human (His)6DGAT1 were thawed at RT and re-suspended at a 10:1 ratio (mL buffer/g of cells) in 50 mM HEPES, 1× Complete Protease Inhibitor, pH 7.5.
The re-suspended pellet was homogenized for 1 min using a Brinkman PT 10/35 homogenizer with a 20 mm generator. Cells were lysed using Avestin Emulsiflex (chilled to 4° C.) at 10000-15000 psi. Lysate was centrifuged at 100,000×g for 1 h at 4° C. Supernatant was removed and pellets were re-suspended in 50 mM HEPES, 1× Complete Protease Inhibitor, pH 7.5 at ⅙ the volume of supernatant. Re-suspended pellets were pooled and homogenized with 10 strokes of a Glas-Col motor driven teflon pestle on setting 70. The protein concentration of the membrane preparation was quantified using BCA protein assay with 1% SDS. The membrane preparation was aliquoted, frozen on dry ice, and stored at −80° C.
For 50 mL, 25 mL of 0.2 M HEPES stock buffer, 0.5 mL of 1 M MgCl2 ([…]), and 24.5 mL of milli-Q H2O are added to the 55 mL Wheaton Potter-Elvehjem homogenizer. Enzyme preparation (0.1 mL) is added to buffer and the mixture is homogenized with 5 strokes on ice using the Glas-Col variable speed homogenizer system on setting 70.
For 50 mL, 0.5 mL 10 mM diolein is added to 9.5 mL of EtOH in a 50 mL Falcon screw cap conical centrifuge tube. Five mL of 10 mM sodium acetate pH 4.5 is added followed by 0.5 mL of 10 mM oleoyl-CoA. Finally, the remaining 4.5 mL of 10 mM sodium acetate pH 4.5 is added followed by 30 mL of milli-Q H20. The solution should be gently agitated by hand to induce mixing. The final concentrations of EtOH and sodium acetate are 20% and 2 mM, respectively.
Dry compounds are dissolved in the appropriate volume of DMSO to a final concentration of 10 mM. A 10-point, 3-fold dose response is used to evaluate compound potency. All dilutions are performed in DMSO in a Greiner 384-well microplate.
1. 2 μL of compound in DMSO is added to the appropriate wells. 2 μL of DMSO is added to 100% activity and 100% inhibition controls.
2. 25 μL of enzyme mix is added to all wells and plate(s) are incubated for 10 min at RT.
3. 10 μL of 20% acetic acid quench is added to 100% inhibition control wells. Plate(s) are vortexed using Troemner multi-tube vortexer (setting 7 for 10 sec).
4. 25 μL of substrate mix is added to all wells. Plate(s) are vortexed using Troemner multi-tube vortexer (setting 7 for 10 sec). Plate(s) are incubated for 30 min at RT.
5. 10 μL of 20% acetic acid quench is added to all wells. Plate(s) are vortexed using Troemner multi-tube vortexer (setting 7 for 10 sec).
6. 50 μL of 1-butanol w/glyceryl tripalmitoleate internal standard is added to all wells.
7. Plate(s) are sealed with super pierce strong plate sealer using the thermo-sealer.
8. Plate(s) are vortexed using Troemner multi-tube vortexer (setting 10 for 5 min).
9. Plate(s) are centrifuged at 162×g (1000 rpm for GH-3.8 rotor) for 5 min using Beckman GS-6R tabletop centrifuge.
Samples were analyzed by LC/MS/MS using a Waters 1525 μLC and Quattro Micro API MS. Where indicated, tripalmitolein was used as an internal standard to control for instrument variation.
Data is converted to % inhibition prior to curve fitting using the following equation: […]

SMILES	IC50 [µM]
Cc1ccccc1CNC(=O)c1ccc2nc(-c3c(Cl)cccc3Cl)oc2c1 [Example 4-15, 2-(2,6-Dichloro-phenyl)-benzooxazole-6-carboxylic acid 2-methyl-benzylamide]	6.8
Cc1cccc(C(=O)Nc2ccc3nc(-c4c(Cl)cccc4Cl)[nH]c3c2)c1 [Example 1-11, N-[2-(2,6-Dichloro-phenyl)-3H-benzoimidazol-5-yl]-3-methyl-benzamide]	6.9
COC(=O)c1ccc(-c2nc3ccc(C(=O)Nc4cccc(Cl)c4)cc3[nH]2)cc1 [Example 1-136, 4-[6-(3-Chloro-phenylcarbamoyl)-1H-benzoimidazol-2-yl]-benzoic acid methyl ester]	12
O=C(Nc1cccc(Cl)c1)c1ccc2nc(-c3cccc(Cl)c3Cl)[nH]c2c1 [Example 1-124, 2-(2,3-Dichloro-phenyl)-3H-benzoimidazole-5-carboxylic acid (3-chloro-phenyl)-amide]	0.23

Same assay, conditions: inhibitory activity to human DGAT1, Table 1, values given as ranges

SMILES	IC50 [µM]
CCOc1cccc(CCNC(=O)c2ccc3nc(-c4c(Cl)cccc4Cl)[nH]c3c2)c1 [Example 1-82, 2-(2,6-Dichloro-phenyl)-3H-benzoimidazole-5-carboxylic acid [2-(3-ethoxy-phenyl)-ethyl]-amide]	< 1
Cc1nc2cc(NC(=O)c3ccc4[nH]c(-c5c(Cl)cccc5Cl)cc4c3)ccc2s1 [Example 3-1, 2-(2,6-dichloro-phenyl)-1H-indole-5-carboxylic acid (2-methyl-benzothiazol-5-yl)-amide]	1 to 30
COc1ccccc1CCNC(=O)c1ccc2nc(-c3c(Cl)cccc3Cl)oc2c1 [Example 4-11, 2-(2,6-Dichloro-phenyl)-benzooxazole-6-carboxylic acid [2-(2-methoxy-phenyl)-ethyl]-amide]	30 to 100
CC(=O)Nc1ccc2nc(-c3c(Cl)cccc3Cl)[nH]c2c1 [Example 1-6]	1 to 30

Tested on: not given
Test: not given
Conditions: not given

SMILES	melting point [°C]
Cc1ccc(NC(=O)c2ccc3c(c2)C(=O)N(c2c(C)cccc2C)C3=O)cc1C [Example 7-1, 2-(2,6-Dimethylphenyl)-1,3-dioxo-2,3-dihydro-1H-isoindole-5-carboxylic acid (3,4-dimethylphenyl)-amide]	223 to 225
Cc1ccc(NC(=O)c2ccc3c(c2)C(=O)N(c2c(Cl)cccc2Cl)C3=O)cc1C [Example 7-2, 2-(2,6-Dichlorophenyl)-1,3-dioxo-2,3-dihydro-1H-isoindole-5-carboxylic acid (3,4-dimethylphenyl)-amide]	238 to 240
Cc1ccc(NC(=O)c2ccc3oc(-c4c(C)cc(OCC(=O)N(C)C)cc4C)nc3c2)cc1C [Example 4-23, 2-(4-Dimethylcarbamoylmethoxy-2,6-dimethylphenyl)-benzooxazole-5-carboxylic acid (3,4-dimethylphenyl)-amide]	207 to 209
